Results on one compound are retold here after patent US20230391774A1, “Novel Compounds” (AC Immune SA, priority 2020, published 2023).

pEC50: −log10 of the molar value. Entries after “also recorded” stand apart in the source; their conditions may differ.

For test [1], the system named is rTg4510 mice. Briefly: In vivo efficacy: NFTs and neuroinflammation markers by immunohistochemistry. The note with it: 100 mg/kg, immunohistochemistry (data not shown). The text has this:
(§1) Double transgenic rTg4510 mice express the full-length human Tau carrying the P301L mutation (Tau4RON-P301L) under the control of the tet-inducible (or tetracycline-inducible system) CaMKII promoter (Ramsden et al., J. Neurosci., 2005·25(46):10637-10647). Single transgenic mice expressing only the tetracycline-controlled transactivator (tTA) were used as genotype controls. The study comprised 4 treatment groups (n=15 female for tTa group and n=33 female mice/group for the treatment) with the following group distribution (see Table 5). Mice were distributed over 5 cohorts and cages were composed with an average of 3 mice per cage. Compounds or vehicle control were administered bi-daily by gavage for 4 weeks starting at the age of 5 months.
After incubation of this mixture at room temperature for 1 hour, 25 μL of Streptavidin Donor beads (Perkin Elmer) at 25 μg/mL were added in the dark. Plates were analyzed after 30 minutes incubation using the EnSpire Alpha instrument and EnSpire Workstation version 3.00.

The target of test [2] is T1, Tau K18 fragment aggregates (amino acids 244 to 372 of human Tau441) (Homo sapiens, UniProt P10636).
T1 construct: encompassing amino acids 244 to 372 of the longest isoform (2N4R) of human Tau441; purchased Biotechne; host or cells: bacteria
T1 sequence (P10636 561-689): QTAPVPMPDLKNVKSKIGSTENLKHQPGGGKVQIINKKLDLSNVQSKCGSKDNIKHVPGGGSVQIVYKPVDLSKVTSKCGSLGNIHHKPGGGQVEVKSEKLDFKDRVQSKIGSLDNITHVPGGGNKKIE
Briefly: Tau K18 disaggregation assay by ThT. It is filed as biochemical. The note with it: ThT fluorescence; 2 μM K18 aggregates, 30 minutes at RT. As to the method: Tau K18 Disaggregation Assay by ThT
The Tau K18 fragment, encompassing amino acids 244 to 372 of the longest isoform (2N4R) of human Tau441, was expressed in bacteria and purified (Biotechne). For the K18 disaggregation assay by ThT, 35 μM of recombinant K18 in PBS were aggregated for 24 hours at 37° C. in presence of 25 μM of heparin (Sigma-Aldrich) and 10 mM of 1,4-Dithiothreito (DTT from Sigma-Aldrich) under shaking at 750 RPM. Compound 1 was dissolved in anhydrous dimethyl sulfoxide (DMSO, Sigma-Aldrich) to reach a concentration of 10 mM. K18 aggregates and serial dilutions of compounds were mixed together in PBS (volume 50 μL) to a final concentration of 2 μM of K18 aggregates and from 400 to 0.1 μM of Compound 1. The mixture was incubated for 30 minutes at room temperature (RT), then 40 μL of this mixture were transferred into a black 384-well plate assay (Perkin-Elmer) and mixed with 10 μL of 100 μM ThT in 250 mM glycine (both from Sigma-Aldrich) in PBS. Fluorescence (relative fluorescence units; RFU) was measured in monoplicate or duplicate on a Tecan reader (excitation: 440 nm; emission: 485 nm). Percentage of K18 disaggregation was then calculated and half maximal effective concentration (EC50) was determined using GraphPad Prism version 8 (GraphPad Software) assuming a one-binding site fitting model, see Table 3 and Table 4.

The target of test [3] is T2, flTau aggregates (longest isoform of human Tau, 2N4R) (Homo sapiens, UniProt P10636).
T2 construct: 35 μM of recombinant full-length (fl) Tau in phosphate-buffered saline (PBS) were aggregated; purchased Biotechne; host or cells: bacteria
T2 sequence (P10636 1-441 isoform P10636-8): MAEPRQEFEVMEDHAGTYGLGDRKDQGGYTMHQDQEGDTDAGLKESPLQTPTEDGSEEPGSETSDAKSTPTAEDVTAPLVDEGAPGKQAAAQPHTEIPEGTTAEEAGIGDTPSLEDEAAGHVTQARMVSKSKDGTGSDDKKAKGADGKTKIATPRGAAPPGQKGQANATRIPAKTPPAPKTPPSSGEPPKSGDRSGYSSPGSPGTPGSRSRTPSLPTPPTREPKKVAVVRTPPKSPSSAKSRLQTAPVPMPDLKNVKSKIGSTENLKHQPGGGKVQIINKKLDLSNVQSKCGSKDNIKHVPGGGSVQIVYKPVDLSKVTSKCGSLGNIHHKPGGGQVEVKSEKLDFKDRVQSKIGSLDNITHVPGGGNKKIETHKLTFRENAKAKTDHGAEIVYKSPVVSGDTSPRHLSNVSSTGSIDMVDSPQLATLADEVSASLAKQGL
The test is described as follows: Full-length Tau (flTau) disaggregation assay by Thioflavin T (ThT). It is filed as biochemical. The settings on record: ThT fluorescence; 60 nM flTau aggregates, 30 minutes at RT; read-out: flTau disaggregation EC50. Put shortly: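 Recombinant 2N4R Tau (35 μM) pre-aggregated 72 h at 37 °C with 35 μM heparin and 10 mM DTT under shaking. Aggregates (60 nM final) incubated 30 min at RT in PBS with compound (20–0.0012 μM), then ThT added; fluorescence read at ex 440/em 485 nm and EC50 fitted to one-site model.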

The subject of test [4] is misfolded Tau in SH-SY5Y cell line overexpressing full-length human Tau P301L. Briefly: Reduction of intracellular misfolded Tau. Type of test: cell-based. The settings on record: 20 nM, 72 hours, differentiated P301L SH-SY5Y cells, MC1 antibody, vs DMSO control. As to the method:
The SH-SY5Y cell line overexpressing the full-length form of human Tau carrying the P301L mutation were cultured in complete medium DMEM-F12 4.5 g/L Glutamax (Invitrogen), 15% FBS (Biochrom), 1% Peni/Strep (Invitrogen) supplemented with 2.5 μg/ml of G418 (Sigma-Aldrich) selection antibiotic. For the in vitro differentiation from neuroblastoma cells to neurons, cells were plated in 24-well plates (Costar 3337) on glass coverslips coated with Poly-D-Lysine at a seeding density of 2.5×10^3 cells. P301L SH-SY5Y cells were differentiated for 1 week at 37° C. in culture medium in presence of 10 μM retinoic acid (RA; Sigma, R2625). Every 48-72 h media was changed and fresh retinoic acid was added. For the treatment with compound 1, were dispensed on the cells at concentrations between 1-20 nM for 72 hours, with changing compounds every 24 h. After the incubation with Compound 1, cells were pre-fixed with 2% PFA for 5 min followed by a 15 min fixation with 4% PFA. […] Permeabilized fixed cells were then incubated overnight in 10% NGS/0.25% Triton X-100 in PBS with monoclonal anti-mouse MC1 antibody detected misfolded Tau (provided by Prof. Peter Davies, Albert Einstein College of Medicine, New York, USA) and polyclonal anti-rabbit total Tau (Abcam; ab64193) both diluted 1:1000.

Test [5] relates to rTg4510 mice. The test is described as follows: In vivo efficacy: aggregated Tau in cortical total brain homogenate (AlphaLISA). The settings on record: 100 mg/kg bi-daily by gavage for 4 weeks.
Description: In Vivo Efficacy of the Compounds of the Present Invention
as §1, with “months. […]” for “months.”
To prepare cortical total brain homogenates (Cx-TBH), frozen brains were resuspended in 9 volumes/weight of ice-cold homogenization buffer [25 mM Tris-HCl pH 7.4, 150 mM NaCl, 1 mM EDTA, 1 mM EGTA containing phosphatase inhibitors (30 mM NaF, 0.2 mM Na3VO4, 1 nM Okadaic acid, 1 mM PMSF, 5 mM Na4P2O7) and protease inhibitor cocktail (Complete™, Roche)] and homogenized in Eppendorf tubes with a VWR pellet mixer (47747-370). […] Aggregated Tau in total cortical homogenate was quantified using the following antibody pairs: HT7-Acceptor beads+biotin (BT)-HT7-donor beads. […]
A general note: Alpha assays give light when donor and acceptor beads are brought close together.

Take `c1ccc2c(C3CCN(c4ccc5oc(N6CCOCC6)nc5c4)CC3)n[nH]c2c1` [Example 1, 5-(4-(1H-indazol-3-yl)piperidin-1-yl)-2-morpholinobenzo[d]oxazole]: in test [1], the “NeuroFibrillary Tangles (NFTs)” value is recorded as “significant decrease”. Further, in test [1], the “neuroinflammation marker CD68” value was “significant decrease”. Moreover, the “neuroinflammation marker Iba1” value in test [1] is reported as “significant decrease”. Also, the pEC50 in test [2] and in test [3] was greater than 6.00 in each case. The “Reduction of intracellular misfolded Tau” value in test [4] is “Reduction of intracellular misfolded Tau; also recorded: significantly different from DMSO control”. Further, the “aggregated Tau in Cortical Total brain homogenate (Cx-TBH)” value is on record as “significantly decreased” in test [5] (100 mg/kg) and “decreased of aggregated Tau” in test [5] (listed as Compound 1, 100 mg/kg).

By pEC50 is commonly meant −log10 of the EC50, conventionally taken in molar units.
